Reference: patent publication US7462228B2, “Water-base black ink composition and colored product” (Nippon Kayaku Kabushiki Kaisha, priority 2003, dated 2008)
≈ marks a conversion by molar mass, not a printed value.

Columns and labels:
[1] = Solubility in water of the dye compound; type: physicochemical
[2] = Maximum absorption wavelength in water (λmax); type: physicochemical

| solubility [1] [mg/mL] | maximum absorption wavelength in water (λmax) [2] [nm] | SMILES |
| --- | --- | --- |
| ≥ 100 | 646 | COc1ccc(N=Nc2c(S(=O)(=O)O)cc3cc(N=Nc4c(S(=O)(=O)O)cc5cc(S(=O)(=O)O)c(N=Nc6ccc7cc(S(=O)(=O)O)c(N=Nc8cc(S(=O)(=O)O)ccc8S(=O)(=O)O)c(O)c7c6)c(N)c5c4O)ccc3c2O)c(S(=O)(=O)O)c1 [No. 2-29] |
| ≥ 100 | 660 | Nc1c(N=Nc2ccc3cc(S(=O)(=O)O)c(N=Nc4ccccc4S(=O)(=O)O)c(O)c3c2)c(S(=O)(=O)O)cc2cc(S(=O)(=O)O)c(N=Nc3ccc4cc(S(=O)(=O)O)c(N=Nc5ccccc5S(=O)(=O)O)c(O)c4c3)c(O)c12 [No. 2-11] |
| ~100 (≈ 80.1 mM) | 647 | COc1ccc(N=Nc2c(S(=O)(=O)O)cc3cc(N=Nc4c(S(=O)(=O)O)cc5cc(S(=O)(=O)O)c(N=Nc6ccc7cc(S(=O)(=O)O)c(N=Nc8ccc(OC)cc8S(=O)(=O)O)c(O)c7c6)c(N)c5c4O)ccc3c2O)c(S(=O)(=O)O)c1 [No. 2-1] |
| ≥ 100 | 652 | COc1ccc(N=Nc2c(S(=O)(=O)O)cc3cc(N=Nc4c(S(=O)(=O)O)cc5cc(S(=O)(=O)O)c(N=Nc6ccc7cc(S(=O)(=O)O)c(N=Nc8ccc([N+](=O)[O-])cc8S(=O)(=O)O)c(O)c7c6)c(N)c5c4O)ccc3c2O)c(S(=O)(=O)O)c1 [No. 2-5] |
| ≥ 100 | 650 | COc1ccc(N=Nc2c(S(=O)(=O)O)cc3cc(N=Nc4c(S(=O)(=O)O)cc5cc(S(=O)(=O)O)c(N=Nc6ccc7cc(S(=O)(=O)O)c(N=Nc8ccccc8S(=O)(=O)O)c(O)c7c6)c(N)c5c4O)ccc3c2O)c(S(=O)(=O)O)c1 [No. 2-3] |

The remaining lines, values behind:

| SMILES | solubility [1] [mg/mL] | maximum absorption wavelength in water (λmax) [2] [nm] |
| --- | --- | --- |
| COc1ccc(N=Nc2c(S(=O)(=O)O)cc3c(S(=O)(=O)O)c(N=Nc4c(S(=O)(=O)O)cc5cc(S(=O)(=O)O)c(N=Nc6ccc7c(O)c(N=Nc8ccccc8S(=O)(=O)O)c(S(=O)(=O)O)cc7c6)c(O)c5c4N)ccc3c2O)c(S(=O)(=O)O)c1 [No. 2-28] | ~100 (≈ 77 mM) | 645 |
| COc1ccc(N=Nc2c(S(=O)(=O)O)cc3cc(N=Nc4c(S(=O)(=O)O)cc5cc(S(=O)(=O)O)c(N=Nc6cc7c(O)c(N=Nc8ccc(OC)cc8S(=O)(=O)O)c(S(=O)(=O)O)cc7cc6S(=O)(=O)O)c(N)c5c4O)ccc3c2O)c(S(=O)(=O)O)c1 [No. 2-2] | ≥ 100 | 657 |
| COc1ccc(N=Nc2c(S(=O)(=O)O)cc3c(S(=O)(=O)O)c(N=Nc4c(S(=O)(=O)O)cc5cc(S(=O)(=O)O)c(N=Nc6ccc7c(O)c(N=Nc8ccc(OC)cc8S(=O)(=O)O)c(S(=O)(=O)O)cc7c6S(=O)(=O)O)c(O)c5c4N)ccc3c2O)c(S(=O)(=O)O)c1 [No. 2-4] | ≥ 100 | 559 |
